Assay results published in PubChem BioAssay (NCI).
Where “and” joins values, the source holds several entries; their conditions need not be identical. Equal entries are not always repeated.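 Cultured in 96-well plates, cells were exposed to test compound for 48 hours across five concentrations. GI50 = concentration required for 50% inhibition of growth. TGI: total growth inhibition.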

How the values were obtained:
Assay in all cases: NCI anticancer screen, dose series, 48 h
[1] = test system: SK-MEL-2 melanoma
[2] = test system: MDA-MB-231 breast
[3] = test system: NCI-H522 lung
[4] = test system: MALME-3M melanoma
[5] = test system: DU-145 prostate
[6] = test system: SN12C renal
[7] = test system: K-562 leukemia
[8] = test system: SK-MEL-28 melanoma
[9] = test system: IGROV1 ovarian
[10] = test system: TK-10 renal

Compound `Cn1cnc([N+](=O)[O-])c1S(=O)(=O)Oc1ccccc1` has a GI50 [1] of 15500 nM, a TGI [1] of 40.9 µM and a GI50 [2] of 15500 nM. The TGI [2] was 47.9 µM, the GI50 [3] was 0.759 µM and the TGI [3] was 2.3 µM. It also gave a GI50 [4] of 2140 nM, a TGI [4] of 4.32 µM and a GI50 [5] of 5.6 µM. For the same compound, the TGI [5] was 17 µM, the GI50 [6] was 21500 nM and the TGI [6] was greater than 71.7 µM. It also gave a GI50 [7] of 2520 nM, a TGI [7] of 15.5 µM and a GI50 [8] of 8.61 µM. It also gave a TGI [8] of 32.2 µM, a GI50 [9] of 2210 nM and a TGI [9] of 4.76 µM. It also gave a GI50 [10] of 1990 nM and a TGI [10] of 3.81 µM.
`Cc1nc2ccccc2nc1-c1ccc(N=[N+]([O-])c2ccc(-c3nc4ccccc4nc3C)cc2)cc1` gave a TGI [1] greater than 100 µM, a TGI [2] greater than 80.2 µM and a TGI [3] greater than 100 µM. For the same compound, the TGI [4] was greater than 100 µM, the TGI [5] was greater than 100 µM and the TGI [6] was greater than 100 µM. It also gave a TGI [7] greater than 100 µM, a TGI [8] greater than 100 µM and a TGI [9] greater than 100 µM. It also gave a TGI [10] of 50.5 µM.
Work on `CCN1CCN=c2c3cc(OC)ccc3n3cnc4ccc1c2c43` yielded a TGI [1] of 0.808 µM, a TGI [2] of 0.814 µM and a TGI [3] of 0.207 µM. For the same compound, the TGI [4] was 1.1 µM, the TGI [5] was 2.73 µM and the TGI [6] was 0.433 µM. It also gave a TGI [7] of 0.4 µM, a TGI [8] of 1.83 µM and a TGI [9] of 7.62 µM. It also gave a TGI [10] of 6.66 µM.
`COc1cc(-c2nn(-c3cccc(NC(=O)Nc4ccc(Cl)c(Cl)c4)c3)cc2-c2ccncc2)ccc1Cl` gave a GI50 [1] of 1140 nM, a TGI [1] of 2.35 µM and a GI50 [2] of 698 nM. For the same compound, the TGI [2] was 1.92 µM, the GI50 [3] was 0.811 µM and the TGI [3] was 3.1 µM. For the same compound, the GI50 [4] was 926 nM, the TGI [4] was 2.42 µM and the GI50 [5] was 1.52 µM. The TGI [5] was 34.2 µM, the GI50 [6] was 1470 nM and the TGI [6] was greater than 50 µM. For the same compound, the GI50 [7] was 890 nM, the TGI [7] was greater than 50 µM and the GI50 [8] was 1.43 µM. The TGI [8] was 7.32 µM, the GI50 [9] was 1180 nM and the TGI [9] was 3.48 µM. The GI50 [10] was 1430 nM and the TGI [10] was 40.9 µM.
`Cc1nc2cnc(N)c(C#Cc3cncc(C(=O)Nc4ccc(CN5CCN(C)CC5)c(C(F)(F)F)c4)c3)c2nc1C` showed a GI50 [1] of 187 nM, a TGI [1] of 0.817 µM and a GI50 [2] of 209 nM. It also gave a TGI [2] of 2.13 µM, a GI50 [3] of 0.276 µM and a TGI [3] of 3.86 µM. For the same compound, the GI50 [4] was 33.9 nM, the TGI [4] was 0.163 µM and the GI50 [5] was 0.409 µM. It also gave a TGI [5] of 11.2 µM, a GI50 [6] of 381 nM and a TGI [6] of 11.8 µM. It also gave a TGI [7] of 8.18 µM, a GI50 [8] of 0.166 µM and a TGI [8] of 1.32 µM. For the same compound, the GI50 [9] was 266 nM, the TGI [9] was 1.21 µM and the GI50 [10] was 496 nM. For the same compound, the TGI [10] was 3.2 µM.
`N=c1ccn2c(n1)OC1C(O)C(CO)OC12` (configuration not stated) gave a GI50 [1] greater than 100000 nM, a TGI [1] greater than 1000 µM and a GI50 [2] greater than 100000 nM. For the same compound, the TGI [2] was greater than 1000 µM, the GI50 [3] was greater than 100 µM and the TGI [3] was greater than 1000 µM. For the same compound, the GI50 [4] was 4220 nM, the TGI [4] was 78.5 µM and > 100 µM and the GI50 [5] was 2.53 µM and 0.886 µM. The TGI [5] was greater than 1000 µM, the GI50 [6] was 3130 nM and the TGI [6] was greater than 621 µM. The GI50 [7] was 81400 nM, the TGI [7] was greater than 1000 µM and the GI50 [8] was 6.3 µM and > 36.5 µM. It also gave a TGI [8] greater than 607 µM, a GI50 [9] of 4020 nM and a TGI [9] greater than 1000 µM. For the same compound, the TGI [10] was greater than 1000 µM.
For `O=C(c1ccc(F)c(F)c1Nc1ccc(I)cc1F)N1CC(O)([C@@H]2CCCCN2)C1`, the GI50 [1] was < 13 nM and 32.7 nM, the TGI [1] was less than 0.0268 µM and the GI50 [2] was < 25.4 nM and 95.5 nM. The TGI [2] was 4.18 µM and > 9.06 µM, the GI50 [3] was 4.16 µM and 3.22 µM and the TGI [3] was 21.6 µM and > 10 µM. For the same compound, the GI50 [4] was < 10 nM and 1.81 nM, the TGI [4] was 0.0133 µM and the GI50 [5] was 3.32 µM and 3.18 µM. For the same compound, the TGI [5] was 19.9 µM and > 10 µM, the GI50 [6] was 2030 nM and 1140 nM and the TGI [6] was 18.7 µM and > 10 µM. For the same compound, the GI50 [7] was 216 nM and 574 nM, the TGI [7] was 6.15 µM and > 10 µM and the GI50 [8] was less than 0.01 µM. For the same compound, the TGI [8] was 0.594 µM, the GI50 [9] was < 46.1 nM and 125 nM and the TGI [9] was 13.8 µM and > 10 µM. The GI50 [10] was 271 nM and the TGI [10] was 14.8 µM and > 10 µM.
For `COc1c(OC)c(OC)c(C(=O)/C=C/c2ccccc2)c(OC)c1OC`, the TGI [1] was 45 µM, the TGI [2] was 35.6 µM and the TGI [3] was 14.7 µM. For the same compound, the TGI [4] was 30.1 µM, the TGI [5] was 12 µM and the TGI [6] was 26.9 µM. For the same compound, the TGI [7] was 55.5 µM, the TGI [8] was 27.3 µM and the TGI [9] was 27.9 µM. It also gave a TGI [10] of 26.4 µM.
`C=CCCCCCCCCCCC1(O)C=CC2=[N+](CCCCCN=C(N)N)CCCN21` (configuration not stated) was tested, and the GI50 [1] was 21300 nM, the TGI [1] was 47.2 µM and the GI50 [2] was 9980 nM. The TGI [2] was 30.2 µM, the GI50 [3] was 3.6 µM and the TGI [3] was 18.4 µM. For the same compound, the GI50 [4] was 2520 nM, the TGI [4] was 10.9 µM and the GI50 [5] was 12.2 µM. The TGI [5] was 26.6 µM, the TGI [6] was 11.3 µM and the GI50 [7] was 2760 nM. For the same compound, the TGI [7] was 15.9 µM, the GI50 [8] was 13.6 µM and the TGI [8] was 31.8 µM. For the same compound, the GI50 [9] was 10900 nM, the TGI [9] was 30.1 µM and the GI50 [10] was 1330 nM. The TGI [10] was 4.56 µM.
`Oc1cc(O)c2c(c1)OC(c1ccc(O)c(O)c1)C(OC1(c3cc(O)c(O)c(O)c3)Oc3cc(O)cc(O)c3C(O)C1O)C2` (configuration not stated) gave a TGI [1] greater than 69.9 µM, a TGI [2] of 45.8 µM and a TGI [3] of 49.7 µM. It also gave a TGI [4] greater than 100 µM, a TGI [5] greater than 75.5 µM and a TGI [6] of 46.2 µM. The TGI [7] was 43.6 µM, the TGI [8] was greater than 68.5 µM and the TGI [9] was greater than 86.2 µM. For the same compound, the TGI [10] was greater than 100 µM.
`CC(CC(=O)O)C(C(=O)O)C(=O)O` (configuration not stated) gave a TGI [1] greater than 100 µM, a TGI [2] greater than 100 µM and a TGI [3] greater than 100 µM. The TGI [4] was greater than 100 µM, the TGI [5] was greater than 100 µM and the TGI [6] was greater than 100 µM. The TGI [7] was greater than 100 µM, the TGI [8] was greater than 100 µM and the TGI [9] was greater than 100 µM. The TGI [10] was greater than 100 µM.
In the case of `O=C(CC(O)(C(F)(F)F)C(F)(F)F)c1cc(CC(=O)C(O)(C(F)(F)F)C(F)(F)F)cc(CC(=O)C(O)(C(F)(F)F)C(F)(F)F)c1`, the TGI [1] is reported as 3.71 µM, the TGI [2] is reported as 3.3 µM and the TGI [3] is reported as 4.59 µM. It also gave a TGI [4] of 6.33 µM, a TGI [5] greater than 10 µM and a TGI [6] of 6.71 µM. It also gave a TGI [7] greater than 10 µM, a TGI [8] greater than 5.88 µM and a TGI [9] of 4.15 µM. It also gave a TGI [10] of 8.36 µM.
In the case of `COC1C(O)=C2C(=O)O/C(C)=C/C=C/C=C/C=C\CC(c3ccccc3)NC(=O)\C=C/C=C\C=C\C=C\[C@@]2(C)[C@@H]1O` (some centres not stated), the TGI [1] is reported as 0.15 µM, the TGI [2] is reported as 0.0896 µM and the TGI [3] is reported as less than 0.0285 µM. For the same compound, the TGI [4] was 0.329 µM, the TGI [5] was 0.178 µM and the TGI [6] was 0.538 µM. For the same compound, the TGI [7] was 0.158 µM, the TGI [8] was 0.0518 µM and the TGI [9] was 0.287 µM. For the same compound, the TGI [10] was 0.272 µM.
For `CS(=O)(=O)CCCn1c(=O)c(Oc2ccc(F)cc2F)cc2cnc(NC3CCOCC3)nc21`, the GI50 [1] was greater than 25000 nM, the TGI [1] was greater than 25 µM and the GI50 [2] was greater than 25000 nM. The TGI [2] was greater than 25 µM, the GI50 [3] was greater than 25 µM and the TGI [3] was greater than 25 µM. It also gave a GI50 [4] greater than 25000 nM, a TGI [4] greater than 25 µM and a GI50 [5] greater than 25 µM. It also gave a TGI [5] greater than 25 µM, a GI50 [6] greater than 25000 nM and a TGI [6] greater than 25 µM. It also gave a GI50 [7] greater than 25000 nM, a TGI [7] greater than 25 µM and a GI50 [8] greater than 25 µM. For the same compound, the TGI [8] was greater than 25 µM, the GI50 [9] was greater than 25000 nM and the TGI [9] was greater than 25 µM. It also gave a GI50 [10] greater than 25000 nM and a TGI [10] greater than 25 µM.
